Molecules are shown by their SMILES. Entries after “also recorded” stand apart in the source; their conditions may differ. Starred links: 1 amine or outer side, 2 acyl side, 3 side chain; linkers in the order of their positions; H or OH if unused. Residues, ends and D or L forms follow the SMILES beside them. *: point of attachment. AFC = O=c1cc(C(F)(F)F)c2ccc(N*)cc2o1; Morpholide = C1CN(*)CCO1; Cbz = O=C(OCc1ccccc1)*; CO = O=C([*:1])[*:2]; CH2F = FC*

The record followed here is patent publication US20030077653A1, “Method for the identification of active site protease inactivators” (The University of Georgia Research Foundation, Inc., priority 2000, published 2003).

For test [1], the system named is purified Taenia solium cysteine protease. The test can be described thus: Screen of AFC-linked synthetic substrates for cleavage (Step II). It is filed as biochemical. The note with it: pH 4.9, 18 h, 37° C. How it is done:
In this step, the most efficacious substrate for detection of the cysteine protease (high Kcat substrate) was determined in vitro along with those substrates which were not well cleaved (low kcat substrates). From this point forth, the following conditions refer to all assays: “assay buffer” refers to 0.4 M Citrate, pH 4.9 (the pH optima of the protease). Incubation time was 18 hours at 37° C. These conditions were determined by our preliminary data to be best for kinetic evaluation of the protease. […] The experiments were conducted in […] Borosilicate mini-culture tubes (Fisher Scientific), and a fluorometer (Turner) was employed for detection of AFC cleavage.
Approximately 1 ug (or a proteolytically detectable amount) of the purified target cysteine protease was incubated individually, with 1 μg of each of the available substrates in 500 μL of assay buffer. During this setup, the substrate was pre-incubated in the assay buffer for a short period of time (20 minutes) in order to reach an equilibrated status before the addition of the protease. Cleavage assessments were based upon the property of the protease to cleave synthetic peptide substrates linked at the C-terminus to 7-Amino-4-Trifluoromethyl Coumarin (AFC) as previously described. AFC linked tripeptides, dipeptides, and monopeptides, (with a variety of permutations at P3-P1) were available from Enzyme Systems Products (Livermore, CA), and were used as the source of the subset. Following incubation of enzyme preparations overnight (18 h, 37 ° C.) with peptide in assay buffer (Citrate, pH 4.9, supplemented with 0.01 M cysteine), free AFC concentrations were measured fluorometrically (excitation […]). The proteolytic cleavage released the AFC group, which was measurable as a free molecule by a standard fluorometer and converted into molar quantities, based upon a previously established standard curve. The simplicity of AFC detection by the fluorometer was a key factor which quickened and simplified the procedures.
In the assay, 1 ug of the purified Taenia cysteine protease was added to a saturating amount of Z-Phe-Arg-AFC (4×10^−5 M) in assay buffer. The experiment was conducted in triplicate and repeated at least 5 times until we were certain that variability in AFC cleavage was not statistically significant.
Vmax was calculated for the cleavage of substrates by the purified target protease and Vmax was calculated for substrates cleaved by the crude mix protease using conventional kinetic modeling calculations already described in the art.

For test [2], the system named is Taenia crassiceps cysts. The test can be described thus: Short-term prophylactic protection of BALB/c mice from cysticercosis infection. It counts as in vivo. The note with it: pre-injected two days, 10 T. crassiceps cysts/mouse, dosed daily four weeks, intraperitoneal; vs untreated controls. As for the experimental part: FIG. 8. […] Each treated mouse was pre-injected intraperitoneally with inhibitor for two days. During treatment phase, each treated mouse received 1.48×10^−2 μg/μl of N2 daily for three weeks and every other day during the last week. Injections were carried out in 150 μl of dimethyl sulfoxide for each mouse. Both treated groups and positive controls were challenged intraperitoneally with 10 Taenia crassiceps cysts in 200 μl 0.15M PBS at the time of initial infection. After one month of infection, both groups were euthanized and cysts removed by washing with sterile 0.15M PBS. A minimum of two attached cysts were scored as multilobed (ML). […] (B) Graphically represents the effect of protease inhibitor treatment of BALB/c mice challenged with Taenia crassiceps cysts over a long-term period. Mice were divided into treated and untreated groups (5 mice/group).Each mouse in the treated group was pre-injected intraperitoneally with inhibitor for two days. […] Cysts were then counted by visual inspection. […]
Based upon the premise that the cyst wall cysteine protease may serve a critical finction to the life cycle of the Taenia cyst, we tested our most efficacious inhibitors, LLL-FMK and LLY-FMK (K-Pyr was used as a control), for their abilities to protect mice from cysticercosis infection. […] After one month, the mice were euthanized and the cysts counted. […]

The subject of test [3] is Taenia crassiceps cysts. The test can be described thus: Scanning electron microscopy of surfaces of cysts removed from treated mice. It counts as in vivo. An excerpt:
FIG. 9. Scanning electron microscopy of the surface of cysts removed from untreated mice versus cysts removed from treated mice. Magnifications are identical for both slides in each panel. panel A (4000×). […] No immune cells were seen on cysts removed from untreated mice. Panel B (25,000×). […] Microtriches in untreated cysts can be seen to be visibly longer. Visible anchors were also noted for the untreated cysts group, whereas these anchors were not observed in microtriches from treated cysts.
For example, we hypothesized that the cysteine protease was a key parasitic molecule to allow the cyst to evade the host immune response, by cleaving host antibodies. By inhibiting the Taenia cysteine protease with Z-LLY-FMK, we hypothesized that host immunoglobulin could now bind the parasites, and initiate immunological responses (e.g., complement via IgG2a) which would cause damage to the cyst wall. […] We identified macrophages, neutrophils, fibroblasts, and collagenous deposits on the cyst surfaces from treated mice, in comparison to their absence on cysts from untreated mice. General surface atrophy was also apparent. […] Breaks in the integrity of the cyst surface were also noted for the cysts removed from treated mice. […] Cysts removed from untreated mice were characterized by no immune cells, intact and longer microtriches, and homogeneity of the cyst surface.

`CC(C)C[C@H](NC(=O)N1CCOCC1)C(=O)N[C@@H](Cc1ccc(O)cc1)C(=O)Nc1ccc2c(C(F)(F)F)cc(=O)oc2c1` [Mu-LY-AFC, Mu-Leu-Tyr-AFC] ({Morpholide-CO}-Leu-Tyr-{AFC}): the “cleavage as substrate (Vmax)” value in test [1] is “noncleavable”.

As for `CC(C)C[C@H](NC(=O)[C@H](CC(C)C)NC(=O)[C@H](CC(C)C)NC(=O)OCc1ccccc1)C(=O)CF` [Z-LLL-FMK, Z-Leu-Leu-Leu-fluoromethylketone] (Cbz-Leu-Leu-Leu-CH2F), the “% Prophylactic protection of BALB/c mice” value in test [2] came to 100%. As for `CC(C)C[C@H](NC(=O)OCc1ccccc1)C(=O)N[C@@H](CC(C)C)C(=O)N[C@@H](Cc1ccc(O)cc1)C(=O)CF` [Z-LLY-FMK, Z-Leu-Leu-Tyr-FMK] (Cbz-Leu-Leu-Tyr-CH2F), in test [3], the “Immune cells observed by SEM on cyst surfaces” value was “vigorous host immune response; also recorded: presence of adherent immune cells; also recorded: Intense”.
